Data from patent US20110039762A1, “TARGETED ANTIMICROBIAL MOIETIES” (C3 JIAN, INC., priority 2009, published 2011).
Entries after “also recorded” stand apart in the source; their conditions may differ.

Key:
microorganisms = assay: Peptides having multiple activities (targeting/binding, antimicrobial, growth or phenotype altering)
From the text: In certain embodiments, peptides described herein can have multiple activities. Thus for example, a peptide can have both binding/targeting activity and antimicrobial activity. Such peptides can be used, e.g., in a chimeric construct, for any or all of these properties. Thus, for example, a peptide designated “B” in Table 8 can be used as a targeting peptide. If it is also designated G or M it can also be used for antimicrobial activity.

MRSA = assay: Kill or inhibit growth/proliferation; morphology, biofilm and growth disruption (Tables 5, 6); type: cell-based, Methicillin-resistant Staphylococcus aureus; parameters: key: A: Peptide aggregates; B: Less hyphal formation; Clumps; Diffuse clumps and small polyps; F: Diffuse growth; H: Thin; I: Growth inhibition; Microcolony formation; Rippled; Small polyps; Thick; W: Halo formation on top, microlonies on bottom; further: test concentration or dose not given here
[1] = test system: microorganisms (e.g., bacteria, yeasts, fungi); assay: Targeting peptide binding to target microorganisms (Table 3); conditions: preferably 1x PBS; for Target(s) (microorganisms bound by the targeting peptide): peptide binding in aqueous buffers varied by peptide solubility
S. pneumoniae = assay: Kill or inhibit growth/proliferation; morphology, biofilm and growth disruption (Tables 5, 6); type: cell-based, Streptococcus pneumoniae; parameters: key: A: Peptide aggregates; B: Less hyphal formation; Clumps; Diffuse clumps and small polyps; F: Diffuse growth; H: Thin; I: Growth inhibition; Microcolony formation; Rippled; Small polyps; Thick; W: Halo formation on top, microlonies on bottom; further: test concentration or dose not given here
S. epidermidis = assay: as above; type: cell-based, Staphylococcus epidermidis; parameters: key: A: Peptide aggregates; B: Less hyphal formation; Clumps; Diffuse clumps and small polyps; F: Diffuse growth; H: Thin; I: Growth inhibition; Microcolony formation; Rippled; Small polyps; Thick; W: Halo formation on top, microlonies on bottom
[2] = microorganism(s) the targeting peptide binds, peptide binding conducted in aqueous buffers varied by peptide solubility
[3] = microorganism the targeting peptide binds, binding in aqueous buffers varied by peptide solubility
[4] = microorganism(s) the targeting peptide binds, binding in aqueous buffers depending on peptide solubility
Wherever Organism, effect is given: test concentration or dose not given here.

Row | Substance | Activities (microorganisms) | Organism, effect (MRSA) | Target(s) [1, 3] | further results
1 | MQIFYIKTKIFLSFFLFLLIFSQCFYKIEE [PF-442] | G B | MRSA (M) |  | Target(s) [1, 2]: S. epidermidis; also recorded: E. coli; also recorded: C. albicans; also recorded: S. pneumoniae; also recorded: E. faecalis; Organism, effect (S. pneumoniae): S. pneumoniae (C)
2 | PF-009: peptide having multiple activities (chain 1 SKKYNHILNQENR; chain 2 SKKYNHILNQENR; Peptide with targeting and/or antimicrobial activity) | G B |  | M. luteus; also recorded: P. mirabilis; also recorded: C. albicans | Organism, effect (S. epidermidis): S. epidermidis (S)
3 | PF-015: peptide having multiple activities (chain 1 SIDKRNLYNLKYYE; chain 2 SIDKRNLYNLKYYE; Peptide with targeting and/or antimicrobial activity) | G B | MRSA (W) | E. faecalis; also recorded: C. jeikeium | 
4 | PF-017: peptide having multiple activities (chain 1 ESIIE; chain 2 ESIIE; Peptide with targeting and/or antimicrobial activity) | G B | MRSA (M) | E. coli | 
5 | PF-026: peptide having multiple activities (chain 1 SIHFIN; chain 2 SIHFIN; Peptide with targeting and/or antimicrobial activity) | G B | MRSA (M) | S. epidermidis and M. luteus and P. mirabilis and C. albicans and MRSA and E. faecalis and C. jeikeium | 
6 | PF-029: peptide having multiple activities (chain 1 NSTNE; chain 2 NSTNE; Peptide with targeting and/or antimicrobial activity) | G B | MRSA (M) | S. epidermidis; also recorded: M. luteus; also recorded: C. albicans; also recorded: C. jejuni | 
7 | PF-031: peptide having multiple activities (chain 1 MPHHSTTSSRIVVPAHQSNMASTPNLSITP; chain 2 MPHHSTTSSRIVVPAHQSNMASTPNLSITP; Peptide with targeting and/or antimicrobial activity) | G B | MRSA (M) | M. luteus; also recorded: C. albicans | 
8 | PF-035: peptide having multiple activities (chain 1 SFYESY; chain 2 SFYESY; Peptide with targeting and/or antimicrobial activity) | G B | MRSA (M) | S. epidermidis and M. luteus and E. coli and C. albicans and MRSA and C. jeikeium and C. jejuni | 
9 | PF-045: peptide having multiple activities (chain 1 LDINDYRSTY; chain 2 LDINDYRSTY; Peptide with targeting and/or antimicrobial activity) | G B | MRSA (S) | S. epidermidis; also recorded: E. coli; also recorded: E. faecalis; also recorded: C. jejuni | 
10 | PF-049: peptide having multiple activities (chain 1 AYYLKRREEKGK; chain 2 AYYLKRREEKGK; Peptide with targeting and/or antimicrobial activity) | G B | MRSA (S) | S. epidermidis and MRSA and C. jeikeium and C. jejuni | 
11 | PF-058: peptide having multiple activities (chain 1 FADQSQDNA; chain 2 FADQSQDNA; Peptide with targeting and/or antimicrobial activity) | G B | MRSA (M) | S. epidermidis and M. luteus and E. coli and C. albicans and MRSA and C. jeikeium and C. jejuni | 
12 | PF-149: peptide having multiple activities (GKVSVLTRVPRSLGGAPANQ; Peptide with targeting and/or antimicrobial activity) | G B | MRSA (H) |  | Target(s) [1, 4]: S. epidermidis and M. luteus and E. coli and MRSA and C. jeikeium
13 | PF-156: peptide having multiple activities (LITAEQPATAPIAGK; Peptide with targeting and/or antimicrobial activity) | G B | MRSA (H) |  | Target(s) [1, 4]: S. epidermidis; also recorded: C. jeikeium
14 | PF-157: peptide having multiple activities (HTAVVWLAGVSGCVALSHCEPA; Peptide with targeting and/or antimicrobial activity) | G B |  |  | Organism, effect (S. epidermidis): S. epidermidis (M)
15 | PF-290 (MVHDMTNGTLIIVKH; Peptide with targeting and/or antimicrobial activity) |  |  |  | Organism, effect (S. epidermidis): S. epidermidis (C)
16 | PF-293 (YDPLK; Peptide with targeting and/or antimicrobial activity) |  |  |  | Organism, effect (S. epidermidis): S. epidermidis (C)
17 | PF-310 (GVALIGTILVPLLSGLFG; Peptide with targeting and/or antimicrobial activity) |  |  |  | Organism, effect (S. epidermidis): S. epidermidis (C)
18 | PF-382: peptide having multiple activities (chain 1 KYKCSWCKRVYTLRKDHKTAR; chain 2 KYKCSWCKRVYTLRKDHKTAR; Peptide with targeting and/or antimicrobial activity) | G B | MRSA (M) |  | Target(s) [1, 4]: S. epidermidis; also recorded: B. subtilis; also recorded: B. fragilis; also recorded: E. coli; also recorded: P. aeruginosa; also recorded: E. faecalis; also recorded: C. jeikeium; also recorded: C. jejuni
19 | PF-405: peptide having multiple activities (LVRIEVDDLEEWYERNFI; Peptide with targeting and/or antimicrobial activity) | G B | MRSA (M) |  | Target(s) [1, 2]: S. epidermidis; also recorded: E. coli; also recorded: E. faecalis
20 | PF-539: peptide having multiple activities (chain 1 SIILTKKKRRKIPLSIDSQIYKYTFKQ; chain 2 SIILTKKKRRKIPLSIDSQIYKYTFKQ; Peptide with targeting and/or antimicrobial activity) | G B | MRSA (H) |  | Organism, effect (S. pneumoniae): S. pneumoniae (A)
21 | PF-551: peptide having multiple activities (chain 1 QVKEKRREIELQFRDAEKKLEASVQAE; chain 2 QVKEKRREIELQFRDAEKKLEASVQAE; Peptide with targeting and/or antimicrobial activity) | G B | MRSA (C) |  | Target(s) [1, 2]: S. pneumoniae
22 | PF-630: peptide having multiple activities (chain 1 IPATPIIHS; chain 2 IPATPIIHS; Peptide with targeting and/or antimicrobial activity) | G B | MRSA (M) |  | 
23 | PF-642: peptide having multiple activities (chain 1 FTTPMIGIPAGLLGGSYYLKRREEKGK; chain 2 FTTPMIGIPAGLLGGSYYLKRREEKGK; Peptide with targeting and/or antimicrobial activity) | G B | MRSA (M) |  | Target(s) (microorganisms bound by the targeting peptide) [1]: M. luteus and MRSA and C. jeikeium
24 | PF-658 (chain 1 PTTPPPTTPPEIPTGGTVIST; chain 2 PTTPPPTTPPEIPTGGTVIST; Peptide with targeting and/or antimicrobial activity) |  |  |  | Organism, effect (morphology, biofilm and growth disruption) (MRSA): MRSA (R); Target(s) (microorganisms bound by the targeting peptide) [1]: Mycobacteria spp; Organism, effect (morphology, biofilm and growth disruption) (S. pneumoniae): S. pneumoniae (H)
25 | PF-694 (chain 1 DLIRPLYSMSAPSVA; chain 2 DLIRPLYSMSAPSVA; Peptide with targeting and/or antimicrobial activity) |  |  |  | Organism, effect (morphology, biofilm and growth disruption) (MRSA): MRSA (R); Target(s) (microorganisms bound by the targeting peptide) [1]: Mycobacteria spp; Organism, effect (morphology, biofilm and growth disruption) (S. pneumoniae): S. pneumoniae (A)
26 | PF-738: peptide having multiple activities (KSGATSAASGAKSGASS; Peptide with targeting and/or antimicrobial activity) | G B |  |  | Organism, effect (morphology, biofilm and growth disruption) (MRSA): MRSA (M); Target(s) (microorganisms bound by the targeting peptide) [1]: S. epidermidis; also recorded: C. albicans; also recorded: C. jeikeium
27 | PF-764: peptide having multiple activities (GYFEPGKRD; Peptide with targeting and/or antimicrobial activity) | G B |  |  | Organism, effect (morphology, biofilm and growth disruption) (MRSA): MRSA (D); Target(s) (microorganisms bound by the targeting peptide) [1]: S. epidermidis and M. luteus and C. albicans and MRSA and S. pneumoniae and E. faecalis and C. jeikeium; Organism, effect (morphology, biofilm and growth disruption) (S. pneumoniae): S. pneumoniae (H)
